Assay results published in PubChem BioAssay AID651990 (The Scripps Research Institute Molecular Screening Center, 2013).
Activity calls are given as the source filed them. The rule behind the calls is not given here.

How the values were obtained:
[1] = molecular target: Acyl-protein thioesterase 1 (Homo sapiens) (UniProt O75608); assay: concentration-dependent LYPLA1/LYPLA2 inhibition – gel-based ABPP, fluorescence, HEK293T proteome, dose response (AID 651990); conditions: HEK293T soluble proteome, gel-based ABPP FP-PEG-Rh fluorescence; LYPLA1
[2] = molecular target: Acyl-protein thioesterase 2 (Homo sapiens) (UniProt O95372); assay: as above; conditions: HEK293T soluble proteome, gel-based ABPP FP-PEG-Rh fluorescence; LYPLA2
Acyl-protein thioesterase 2 (Homo sapiens), sequence (O95372 whole entry, looked up): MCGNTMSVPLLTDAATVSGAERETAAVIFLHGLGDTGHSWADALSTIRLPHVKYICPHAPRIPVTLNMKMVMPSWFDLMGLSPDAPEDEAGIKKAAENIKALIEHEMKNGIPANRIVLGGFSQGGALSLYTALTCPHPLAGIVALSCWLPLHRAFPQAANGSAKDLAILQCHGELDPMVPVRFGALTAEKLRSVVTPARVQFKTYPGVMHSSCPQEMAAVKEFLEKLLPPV

Acyl-protein thioesterase 1 (Homo sapiens), sequence (O75608 whole entry, looked up): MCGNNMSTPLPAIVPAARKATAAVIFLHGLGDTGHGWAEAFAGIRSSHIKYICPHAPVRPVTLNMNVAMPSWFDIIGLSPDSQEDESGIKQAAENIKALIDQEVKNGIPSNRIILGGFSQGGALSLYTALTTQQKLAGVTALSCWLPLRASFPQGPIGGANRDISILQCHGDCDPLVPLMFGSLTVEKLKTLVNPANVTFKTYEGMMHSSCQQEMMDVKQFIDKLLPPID

| SMILES | IC50 [1] | IC50 [2] |
| --- | --- | --- |
| COc1ccc(N2CCN(C(=O)c3cc4c(s3)-c3ccccc3S(=O)(=O)C4)CC2)cc1 | > 3000 nM (inactive) | 144 nM |
| O=C(CN1CCN(C(=O)c2ccco2)CC1)Nc1cc(C(F)(F)F)ccc1Cl | – | > 3000 nM (inactive) |
